Values quoted from earlier work as cited in paper PMC7439511 (Science Advances, 2020).

Test system: RACK7 (ZMYND8)

With “H3K4me0: H3K4me0 (H3) peptide, amino acids 1 to 21” as the substance, how does the “RACK7 binding to N-terminal tail of histone H3” value read?
The value was “bind”.

Which “RACK7 binding to N-terminal tail of histone H3” value does the source give for “H3K4me1: H3K4me1 peptide, amino acids 1 to 21” here?
Its value is “bind”.
